Assays:
[1] = tested on: human NSCLC A549-A2 tumor cells; assay: Adoptive transfer of preincubated NK cells in A549-A2 experimental metastasis model; format: in vivo, athymic nude mice; details: CTX 200 mg/kg ip days 14, 21; NK cells preincubated with the protein iv days 16, 22 (CTX group: no NK cells)
[2] = tested on: p53-/HLA-A2.1- AsPC1 tumor cells; assay: AsPC1 xenograft tumor growth in nude mice; format: in vivo; details: 9 doses i.v.
Protocol: (§1) The tumor lines used in this study were MBA-MD-231 (p53+/HLA-A2.1+), PANC1 (p53+/HLA-A2.1+), AsPC1(p53-/HLA-A2.1-) and HT29 (p53+/HLA-A2.1-). […] J. Immunol. 176:3223. Primary tumors derived from these cells were established in nude mice following subcutaneous injection. Mice were then treated as previously described with 264scTCR/IL-2, rhIL-2 or PBS and tumor volumes were measured.

[3] = tested on: p53 (aa 264-272) peptide-loaded T2 cells and CTLL-2 cells; assay: Cell-cell conjugation assay (flow cytometry); format: cell-based, human T2 cells, mouse CTLL-2 cells
Protocol: FIG. 20A, FIG. 20B, FIG. 20C, and FIG. 20D depict in vitro conjugation of IL-2 receptor-bearing immune cells with antigen presenting target cells mediated by scTCR/IL-2 fusion protein. T2 cells were loaded with either p53 (aa 264-272) or p53 (aa 149-157) (control) peptides and then labeled with HE. CTLL-2 cells were labeled with calcein AM. Labeled cells were mixed and incubated in the presence or absence of 264scTCR/IL-2 fusion protein and the samples were analyzed by flow cytometry. Assay conditions including loading peptide used and presence or absence of fusion protein are indicated beneath each histogram. Single stained regions are marked 1 and 3 and the double stained cell poplulation is marked 2.
In this experiment, T2 cells pulsed with either the 149 or 264 peptide. CTLL-2 cells were hydrodiethidium (HE) labeled and incubated for 20 minutes at RT with an equal number of calcein-AM labeled T2 cells pulsed with either 50 μg of 149 or 264 peptide. […] In contrast, conjugate formation was not observed with the mixture that included the 149 peptide pulsed T2 cells (B; 0.88%). Cell samples were washed one time before analysis on the flow cytometer.
Samples were analyzed by flow cytometry. […] Thus, the scTCR/IL-2 fusion protein could be useful in a therapeutic approach for bringing together immune effector cells and tumor cells and stimulating immune cell-mediated activity against the tumor.

[4] = tested on: HT29 (p53+/HLA-A2.1-) tumors; assay: HT29 xenograft tumor growth in nude mice; format: in vivo; details: not shown
Protocol: as §1

[5] = tested on: p53+/HLA-A2.1+ PANC1 tumor cells; assay: PANC1 xenograft tumor growth in nude mice; format: in vivo; details: 9 doses i.v.
Protocol: as §1

[6] = tested on: immune cells (splenocytes, lymph nodes, bone marrow); assay: In vivo activation of immune cells in A375 tumor-bearing nude mice
Excerpt: FIG. 19A and FIG. 19B depict in vivo activation of immune cells in mice following scTCR/IL-2 treatment. […] Splenocytes were isolated at the indicated times and analyzed by flow cytometry for expression of CD25, CD122 or pan-NK markers. The plots indicate the percentage of CD25, CD122 or pan-NK-positive staining (dark line) compared with splenocyte staining with an isotype control mAb (red line).
The effect of the scTCR/IL-2 fusion proteins on immune cells was also investigated in vivo. […] Changes in IL-2R subunit expression were also assessed in immune cells isolated from the spleens, lymph nodes and bone marrow of 264scTCR/IL-2- or MART-1scTCR/IL-2-treated mice.

[7] = tested on: human A375 cell line tumors; assay: A375 primary tumor growth model in nude mice
YAC-1 target cells = assay: Lytic activity of stimulated nude mouse splenocytes (calcein release); format: cell-based; details: four days in equivalent molar amounts; YAC-1 targets
[8] = tested on: p53+/HLA-A2.1+ MDA-MB-231 tumor cells; assay: MDA-MB-231 xenograft tumor growth in nude mice; format: in vivo; details: compared to PBS; 9 doses i.v.
CD45R+ cells in tumors = assay: Immune cell infiltration into tumors (CD45R immunohistochemistry); format: in vivo, nude mice
A375 tumors = assay: Tumor infiltration of adoptively transferred splenocytes pre-coated with scTCR/IL-2; format: in vivo, nude mice; details: 24 hrs after transfer of pre-coated splenocytes
Protocol: FIG. 28 depicts targeted tumor infiltration of adoptively transferred splenocytes pre-coated with scTCR/IL-2. […] Boxes, interquartile range of distribution (25th-75th percentile); line within box, median; whisker, 5th-[…]. *, P<0.0001; **, P<0.0001. At least three tumors per group and 10 fields per tumor were analyzed.
The activated splenocytes were isolated and incubated with the respective scTCR/IL-2 fusion proteins in vitro to coat the surface of the cells prior to transfer into A375 tumor bearing nude mouse recipients. Tumors were then isolated 24 hrs later and levels of CD45R+NK cells were assessed.

O=P1(N(CCCl)CCCl)NCCCO1 (centres unmarked) [CTX, cyclophosphamide, reference compound]
Median survival [1]: 52 days

264scTCR/IL-2: soluble three domain single-chain TCR specific to human p53 (aa 264-272)/HLA-A2.1 linked to human IL-2 via a peptide linker
tumor growth [2]: tumor outgrowth was not inhibited
conjugated (double stained) cells, share of total population ([3]; 149 control peptide-loaded T2 cells + CTLL-2 cells, fusion protein present (or fusion protein absent)): approximately 0.9%
conjugated (double stained) cells, share of total population ([3]; 149 control peptide-loaded T2 cells + CTLL-2 cells, fusion protein present (or fusion protein absent), listed as 264 scTCR-IL-2): 0.88%
conjugated (double stained) cells, share of total population ([3]; 264 peptide-loaded T2 cells + CTLL-2 cells, fusion protein present (1 μg)): 3.25%
tumor growth [4]: tumor outgrowth was not inhibited
tumor growth [5]: significant antitumor effects
NK cells ([6]; repeated administration): treatment-dependent increase in NK cells
lymph nodes and spleens ([6]; repeated daily i.v. 32 μg/dose): enlargement of lymph nodes and spleens
serum IFN-γ levels ([6]; repeated daily i.v. 32 μg/dose): increase in serum IFN-γ levels
expression of CD122 and CD25 in cells from lymph nodes and bone marrow ([6]; repeated daily treatment): Elevated expression
Splenocytes expressing IL-2Rα (CD25) or IL-2≈ (CD122) ([6]; repeated daily treatments, peak one day after fourth treatment): increased approximately three-fold
mice that developed tumors ([7]; 3 μg dose, 9 doses): all of the mice developed tumors
average tumor size ([7]; 3 μg dose, 9 doses, vs PBS): significantly smaller than that of the PBS treated mice
A375 tumor growth compared to PBS ([7]; 0.5 mg/kg i.v., four daily injections, 10-day rest, four more): potent antitumor activity
mice that developed tumors ([7]; 0.5 mg/kg/dose, 9 doses): six of the eight
tumor weight at the end of the study ([7]; 1.6 mg/kg and 0.5 mg/kg doses vs rhIL-2 0.4 mg/kg): significantly more effective at reducing tumor burden than the high dose of rhIL-2
mice that developed tumors ([7]; 1.6 mg/kg i.v., 9 doses, tumors established three days): 50%
mice that developed tumors ([7]; 1.6 mg/kg/dose, 9 doses): four of the eight
tumor growth ([7]; 0.5 or 0.2 mg/kg, four daily injections, 10-day rest, four more, compared with 0.125 mg/kg rhIL-2): significantly inhibited tumor growth
tumor growth following two dosing cycles ([7]; 264scTCR/IL-2 0.5 mg/kg daily x4 per cycle, rhIL-2 0.4 mg/kg every 8 hrs for five days per cycle): inhibited tumor growth to a similar degree
growth of well-established tumors ([7]; tumors grown to 75 or 200 mm^3, 9 doses i.v.): marked inhibition of tumor growth and partial to complete regression of tumors in most mice
lytic activity of stimulated mouse splenocytes (YAC-1 target cells): Equivalent levels of lytic activity
tumor growth [8]: significant antitumor effect
CD45R-positive cells in A375 tumors (CD45R+ cells in tumors; A375 (p53+/HLA.A2.1+) tumor sections): Complete tumor infiltration of large CD45R+ cells
CD45R+ cell infiltration (CD45R+ cells in tumors; A375 tumors, 10 μg/dose, four days of daily treatment): 14.5 CD45R+ cells/field of view
CD45R-positive cells in AsPC1 tumors (CD45R+ cells in tumors; AsPC1 (p53-/HLA-A2.1-) tumor sections): no differences were observed between treatment groups
cells bound with fusion protein infiltrating into tumors (A375 tumors): 3.0 BF1+ cells/field of view
infiltration of CD45R+ cells (A375 tumors): 10.3 CD45R+ cells/field of view
